Where a SMILES comes first, the peptide text is derived from it. [ ]: non-standard residue; d: D form. The star is where a group is joined. NHCH2CH2OH = OCCN*; For = O=C*
What was measured:
[1] = H+/Na+ transport assay of bead-derived peptides (one-point); type: biochemical; parameters: key: relative activity; mean of two control wells = 1.00; settings: bead-derived peptide solution, EYPC/EYPG LUVs;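 note: relative to parent gramicidin A activity set to 1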
Protocol: (§1) Each type of assay must be simplified and miniaturized to assess the activities of the library peptides in a 96-well format for the high-throughput screening.
H+/Na+ transport assay of bead-derived peptides.1,2,3 Trisodium 8-hydroxypyrene-1,3,6-trisulfonate
mini-extruder apparatus (Avanti Polar Lipids).
28.9 µmol) in CHCl3 (225 µL) and egg yolk phosphatidylglycerol (1.20 mg, 1.56 µmol) in CHCl3 (60.0 µL)
The thin film was hydrated and
1.0 mM pyranine) by sonication.
A suspension of the LUVs was immediately
used for the H+/Na+ transport assay.
The diluted solution of peptide
flat-bottom 96-well plate (655086, Greiner bio-one).
was vortexed at room temperature for 30 min.
(5/95, 3.0 µL) and the LUV suspension were mixed in each plate to determine 100% lysis. The untreated
LUV suspension was used to determine 0% lysis.
normalized against 100% lysis by Triton X-100 (Imax) and 0% lysis (I0) as following, where Ix is the
fluorescence intensity (Supplementary Equation 2).
I = 100 × (Ix – I0) / (Imax – I0) (2)
The mean value of the two control wells was set to 1.00. […]

[2] = system: P388 mouse leukemia cells; settings: 92 h
Source text: Each type of assay must be simplified and miniaturized to assess the activities of the library peptides in a 96-well format for the high-throughput screening. […]
Mammalian cytotoxicity assay of bead-derived peptides . P388 cells were obtained from Institute of
Development Aging and Cancer (Tohoku University). The cells were maintained with growth medium
[RPMI1640 with phenol red ( Fujifilm Wako Pure Chemical) supplemented with 10% heat -inactivated fetal
bovine serum, pe nicillin G (100 units/mL), and streptomycin (100 µg/mL)] under atmosphere of 5% CO 2 at
The collected cells were resuspended into
the growth medium at 2 × 10^4 cells/mL. The stock solutions of the peptide library were 250-fold diluted
with the growth medium. Aliquots of the medium (100 µL) containing peptides and the latter medium
containing P388 cells (100 µL) were mixed in a 96-well cell culture plate (TR5003, TrueLine). The final
concentration of P388 cells was 1 × 10^4 cells/mL. After incubation under atmosphere of 5% CO2 at 37 °C
for 92 h, the numbers of viable cells were determined by
2-(4-iodophenyl)-3-(4-nitrophenyl)-5-(2,4-disulfophenyl)-2H-tetrazolium, monosodium salt (WST-1) assay.
A solution of 1-methoxy-5-methylphenazinium methyl sulfate (1-methoxy PMS) and WST-1 in the growth
medium (1-methoxy PMS 0.70 mg/mL in Milli-Q/WST-1 3.6 mg/mL in pH 7.4 HEPES buffer = 1/9) was
added to each well of the plate (10.0 µL/well). The plate was incubated for 4 h under atmosphere of 5% CO2
at 37 °C. The absorbance of each well at 415 nm was measured using a Benchmark microplate reader
(Bio-Rad). The cytotoxicities were evaluated as cell viability (%). […]

[3] = system: Streptococcus pyogenes SSI-9; test: Antibacterial activity assay of bead-derived peptides (three concentrations); type: cell-based; parameters: key: +++: inhibition by the 640-fold diluted peptide solution; ++: inhibition by the 160-fold diluted solution; +: inhibition by the 40-fold diluted solution; -: no inhibition; settings: S. pyogenes, bead-derived peptide solution, three concentrations
Protocol: as §1
Next, the peptides in groups A and B were subjected to the antibacterial assay and structural determination. Three peptide concentrations were applied to evaluate the growth inhibition of S. pyogenes and determine the antibacterial activity. […] Finally, the structures of the peptides were determined. […]
Antibacterial activity assay of bead-derived peptides. The stock solution of the peptide library was 4- and […]
16-fold diluted with DMSO. The non-diluted stock solution, 4-fold diluted solution, and 16-fold diluted […]
solution were transferred to the 96-well round-bottom plate (3367, Corning, 1.0 µL/well). To the solution of […]
peptide in each well was added a suspension of Streptococcus pyogenes SSI-9 strain in cation adjusted […]
Mueller Hinton Broth [40.0 µL, 2 × 10^5 colony forming units (CFU), 21 g/L Mueller Hinton Broth (Difco), 50 […]
mg/L Ca2+ (adjusted with CaCl2•2H2O), and 25 mg/L Mg2+ (adjusted with MgCl2•6H2O)] supplemented with […]
5% laked horse blood (Nippon Biotest Laboratories). The plate was incubated at 37 °C for 18 h, and the precipitation of the grown cells was examined. […]

Compound | H+/Na+ transport activity normalized against the value of 1 (1.00) [1] | cell viability/% [2] [%] | antibacterial activity [3]
CC(C)C[C@@H](NC(=O)[C@H](C)NC(=O)CNC(=O)[C@@H](NC=O)C(C)C)C(=O)N[C@@H](C)C(=O)N[C@H](CC(C)C)C(=O)N[C@H](C(=O)N[C@H](CC(C)C)C(=O)N[C@@H](Cc1c[nH]c2ccccc12)C(=O)N[C@@H](C(=O)N[C@@H](Cc1c[nH]c2ccccc12)C(=O)N[C@H](CC(C)C)C(=O)N[C@@H](Cc1c[nH]c2ccccc12)C(=O)N[C@@H](C(=O)N[C@@H](Cc1c[nH]c2ccccc12)C(=O)NCCO)[C@H](C)O)C(C)C)C(C)C [compound 5508] (For-VGA[dL]A[dL]V[dL]W[dV]W[dL]W[dT]W-NHCH2CH2OH) | 1.19 | 100.0 | -
CC(C)C[C@@H](NC(=O)[C@H](C)NC(=O)CNC(=O)[C@@H](NC=O)C(C)C)C(=O)N[C@@H](C)C(=O)N[C@@H](C(=O)N[C@H](C(=O)N[C@H](CC(C)C)C(=O)N[C@@H](Cc1c[nH]c2ccccc12)C(=O)N[C@@H](C(=O)N[C@@H](Cc1c[nH]c2ccccc12)C(=O)N[C@H](CC(C)C)C(=O)N[C@@H](Cc1c[nH]c2ccccc12)C(=O)N[C@@H](C(=O)N[C@@H](Cc1c[nH]c2ccccc12)C(=O)NCCO)[C@H](C)O)C(C)C)C(C)C)C(C)C [compound 1522] (For-VGA[dL]A[dV]V[dL]W[dV]W[dL]W[dT]W-NHCH2CH2OH) | 1.03 | 100.0 | -
CC(C)C[C@@H](NC(=O)[C@H](Cc1c[nH]c2ccccc12)NC(=O)[C@@H](CC(C)C)NC(=O)[C@H](Cc1c[nH]c2ccccc12)NC(=O)[C@H](NC(=O)[C@H](Cc1c[nH]c2ccccc12)NC(=O)[C@@H](CC(C)C)NC(=O)[C@@H](NC(=O)[C@H](NC(=O)[C@H](C)NC(=O)[C@H](NC(=O)[C@H](C)NC(=O)CNC(=O)[C@@H](NC=O)C(C)C)C(C)C)C(C)C)C(C)C)C(C)C)C(=O)N[C@@H](Cc1c[nH]c2ccccc12)C(=O)NCCO [compound 4329] (For-VGA[dV]A[dV]V[dL]W[dV]W[dL]W[dL]W-NHCH2CH2OH) | 1.18 | 14.3 | -
CC(C)C[C@@H](NC(=O)[C@H](C)NC(=O)CNC(=O)[C@@H](NC=O)C(C)C)C(=O)N[C@@H](C)C(=O)N[C@H](CC(C)C)C(=O)N[C@H](C(=O)N[C@H](CC(C)C)C(=O)N[C@@H](Cc1c[nH]c2ccccc12)C(=O)N[C@H](CC(C)C)C(=O)N[C@@H](Cc1c[nH]c2ccccc12)C(=O)N[C@H](CC(C)C)C(=O)N[C@@H](Cc1c[nH]c2ccccc12)C(=O)N[C@@H](C(=O)N[C@@H](Cc1c[nH]c2ccccc12)C(=O)NCCO)C(C)C)C(C)C [compound 2205] (For-VGA[dL]A[dL]V[dL]W[dL]W[dL]W[dV]W-NHCH2CH2OH) | 1.01 | 0.0 | -
CNC(=O)C[C@@H](NC(=O)[C@H](Cc1c[nH]c2ccccc12)NC(=O)[C@@H](CC(C)C)NC(=O)[C@H](Cc1c[nH]c2ccccc12)NC(=O)[C@@H](CC(C)C)NC(=O)[C@H](Cc1c[nH]c2ccccc12)NC(=O)[C@H](NC(=O)[C@@H](NC(=O)[C@@H](CC(C)C)NC(=O)[C@H](C)NC(=O)[C@@H](CC(C)C)NC(=O)[C@H](C)NC(=O)CNC(=O)[C@@H](NC=O)C(C)C)C(C)C)C(C)C)C(=O)N[C@@H](Cc1c[nH]c2ccccc12)C(=O)NCCO [compound 6829] (For-VGA[dL]A[dL]V[dV]W[dL]W[dL]W[dD](NHMe)W-NHCH2CH2OH) | 1.05 | 100.0 | -
CNC(=O)C[C@@H](NC(=O)[C@@H](NC(=O)[C@@H](CC(C)C)NC(=O)[C@H](C)NC(=O)[C@@H](CC(C)C)NC(=O)[C@H](C)NC(=O)CNC(=O)[C@@H](NC=O)C(C)C)C(C)C)C(=O)N[C@@H](Cc1c[nH]c2ccccc12)C(=O)N[C@@H](C(=O)N[C@@H](Cc1c[nH]c2ccccc12)C(=O)N[C@@H](C(=O)N[C@@H](Cc1c[nH]c2ccccc12)C(=O)N[C@H](CC(C)C)C(=O)N[C@@H](Cc1c[nH]c2ccccc12)C(=O)NCCO)C(C)C)C(C)C [compound 2951] (For-VGA[dL]A[dL]V[dD](NHMe)W[dV]W[dV]W[dL]W-NHCH2CH2OH) | 1.10 | 93.1 | -
CC(C)C[C@@H](NC(=O)[C@H](Cc1c[nH]c2ccccc12)NC(=O)[C@H](NC(=O)[C@H](Cc1c[nH]c2ccccc12)NC(=O)[C@H](NC(=O)[C@@H](NC(=O)[C@H](NC(=O)[C@H](C)NC(=O)[C@H](NC(=O)[C@H](C)NC(=O)CNC(=O)[C@@H](NC=O)C(C)C)[C@H](C)O)C(C)C)C(C)C)C(C)C)C(C)C)C(=O)N[C@@H](Cc1c[nH]c2ccccc12)C(=O)N[C@@H](C(=O)N[C@@H](Cc1c[nH]c2ccccc12)C(=O)NCCO)C(C)C [compound 10653] (For-VGA[dT]A[dV]V[dV]W[dV]W[dL]W[dV]W-NHCH2CH2OH) | 1.04 | 44.1 | -
CNC(=O)C[C@@H](NC(=O)[C@@H](NC(=O)[C@@H](CC(C)C)NC(=O)[C@H](C)NC(=O)[C@@H](CC(C)C)NC(=O)[C@H](C)NC(=O)CNC(=O)[C@@H](NC=O)C(C)C)C(C)C)C(=O)N[C@@H](Cc1c[nH]c2ccccc12)C(=O)N[C@H](CC(C)C)C(=O)N[C@@H](Cc1c[nH]c2ccccc12)C(=O)N[C@H](CC(C)C)C(=O)N[C@@H](Cc1c[nH]c2ccccc12)C(=O)N[C@@H](C(=O)N[C@@H](Cc1c[nH]c2ccccc12)C(=O)NCCO)[C@H](C)O [compound 5746] (For-VGA[dL]A[dL]V[dD](NHMe)W[dL]W[dL]W[dT]W-NHCH2CH2OH) | 1.26 | 100.0 | -
CC(C)C[C@@H](NC(=O)[C@H](Cc1c[nH]c2ccccc12)NC(=O)[C@H](NC(=O)[C@H](Cc1c[nH]c2ccccc12)NC(=O)[C@@H](CC(C)C)NC(=O)[C@@H](NC(=O)[C@H](NC(=O)[C@H](C)NC(=O)[C@H](NC(=O)[C@H](C)NC(=O)CNC(=O)[C@@H](NC=O)C(C)C)C(C)C)C(C)C)C(C)C)C(C)C)C(=O)N[C@@H](Cc1c[nH]c2ccccc12)C(=O)N[C@@H](C(=O)N[C@@H](Cc1c[nH]c2ccccc12)C(=O)NCCO)C(C)C [compound 2120] (For-VGA[dV]A[dV]V[dL]W[dV]W[dL]W[dV]W-NHCH2CH2OH) | 1.24 | 17.0 | ++
CC(C)C[C@@H](NC(=O)[C@H](C)NC(=O)CNC(=O)[C@@H](NC=O)C(C)C)C(=O)N[C@@H](C)C(=O)N[C@@H](C(=O)N[C@H](C(=O)N[C@H](CC(C)C)C(=O)N[C@@H](Cc1c[nH]c2ccccc12)C(=O)N[C@@H](C(=O)N[C@@H](Cc1c[nH]c2ccccc12)C(=O)N[C@H](CC(C)C)C(=O)N[C@@H](Cc1c[nH]c2ccccc12)C(=O)N[C@@H](C(=O)N[C@@H](Cc1c[nH]c2ccccc12)C(=O)NCCO)[C@H](C)O)C(C)C)C(C)C)C(C)C [compound 5058] (For-VGA[dL]A[dV]V[dL]W[dV]W[dL]W[dT]W-NHCH2CH2OH) | 1.02 | 100.0 | -
